According to US11340239B2, “BNP (1-32) epitope and antibodies directed against said epitope” (Bio-Rad Europe GMBH, priority 2007, dated 2022):
Entries after “also recorded” stand apart in the source; their conditions may differ. Positions of bridges follow the written chain, without caps; N, C: chain ends. Non-standard residues stand in square brackets, D forms with d. Residues, ends and D or L forms follow the SMILES beside them. *: point of attachment. Ahx = NCCCCCC(=O)O; Acm = CC(=O)NC*

Key:
[1] = Accelerated liquid stability, ELISA format
Procedure: (§1) The different compounds were tested at different concentrations diluted in 0.1 M succinate buffer, pH 7.6, containing 5% BSA, 2 mM CaCl2, 10% antiproteases cocktail (Sigma reference P2714), 0.1% Proclin, 0.095% NaN3 and 0.1% sodium benzoate.
(§2) The compounds stability was studied in accelerated condition (room temperature) compared to synthetic BNP(1-32) (Sigma-Aldrich, Etats-Unis, #B-5900) and recombinant proBNP(1-108) (HyTest Ref. 8PRO8) in the following way:
(§3) Recombinant proBNP(1-108), synthetic BNP(1-32) and calibrator peptides were diluted in 0.1 M succinate buffer, pH 7.6 described above. Each solution was divided in 10 tubes placed at room temperature (20° C.±5° C.). Then one tube of each solution was frozen at J0, J+7, J+14, J+21. At J+21, the different solutions were thawed and assayed by means of the BioPlex™ 2200 proBNP assay described in Example 14 or of the immunoassays described in Examples 8.2 and 10.2.
(§4) In the BioPlex™ 2200 proBNP assay, the stability of two concentrations of proBNP(1-108), 10 ng/mL and 1 ng/mL, of CaliproBNP1, 2 μg/mL and 0.125 μg/mL and CaliproBNP3, 1 μg/mL and 0.3 μg/mL, were analyzed. In ELISA format, three concentrations of proBNP(1-108) and BNP(1-32), 1.56 ng/mL, 0.78 ng/ml and 0.39 ng/mL, and of CaliproBNP5, […], 31 ng/mL and 15.6 ng/mL, were analysed.

20G7 antibody [2] = assay: Calibrator standard range in ELISA with 20G7 in revelation; type: binding; details: FIGS. 16 and 17
Procedure: (§5) The CaliproBNP1 calibrator was diluted to 1 μg/mL, 0.2 μg/mL, 0.1 μg/mL, and 0.02 μg/mL, the CaliproBNP3 calibrator was diluted to 1.6 μg/mL, 0.8 μg/mL, 0.3 μg/mL, 0.06 μg/mL, the CaliproBNP5 and CaliproBNP6 calibrators were diluted to from 100 ng/ml to 0.01 ng/ml in the same 0.1 M succinate buffer, pH 7.6.

[3] = Accelerated liquid stability, BioPlex 2200 proBNP assay
Procedure: as §1, §2, §3, §4

20G7 antibody [4] = assay: Calibrator standard range in BioPlex 2200 proBNP assay; type: binding; details: FIGS. 14 and 15
Procedure: as §5

BNP(1-32) = biological target: T1, BNP(1-32) (Homo sapiens, UniProt P16860); assay: Immunisation of mice, ELISA of sera; type: in vivo; details: Balb/c mice immunised with KLH-coupled peptide
T1 construct: BNP(1-32): synthetic peptide (Sigma-Aldrich, USA, #B-5900); purchased Sigma-Aldrich B-5900; host or cells: chemical synthesis
T1 sequence (P16860 103-134 limits assumed): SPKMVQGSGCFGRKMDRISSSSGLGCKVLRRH
Procedure: In order to produce monoclonal antibodies, ten mice (Balb/c strain females, 5 weeks old, ref: SIFE055, Charles Rivers, Mass., USA) were immunised using one of the following peptides:
For the first injection, an emulsion of 100 μg of KLH-coupled peptide (at a concentration of 1 mg/ml) diluted to ½ in Freund's complete adjuvant (Sigma, #F-5881) was prepared, and 200 μL of said emulsion (i.e. 100 μg of peptide) were injected subcutaneously into each mouse. At intervals of 20 days, three 200 μL booster shots of an emulsion of KLH-coupled peptide (i.e. 100 μg of peptide) and Freund's incomplete adjuvant (Sigma, #F-5506) were injected subcutaneously, then peritoneally, into each mouse.
An ELISA test was carried out on a solid support to detect the presence of anti-BNP(1-32) antibodies in a mouse serum sample. […]
The microplate was washed three times with 0.1% PBS-T. Each serum from previously immunised mice was subsequently diluted tenfold with 0.1% PBS-T containing 0.1% milk (semi-skimmed), then deposited on the basis of 100 μL per well and left to incubate for two hours at 37° C. […] The enzymatic reaction was stopped by adding 50 μL of sulphuric acid (H2SO4, 4 N) per well, and the OD at 490 nm was subsequently measured in each well.

[5] = room temperature, up to J0 + 21

CSCC[C@H](NC(=O)[C@H](CCCCN)NC(=O)[C@H](CCCNC(=N)N)NC(=O)CNC(=O)[C@H](Cc1ccccc1)NC(=O)CCCCCNC(=O)CNC(=O)[C@H](CO)NC(=O)CNC(=O)[C@H](CCC(N)=O)NC(=O)[C@@H](NC(=O)[C@H](CCSC)NC(=O)[C@H](CCCCN)NC(=O)[C@@H]1CCCN1C(=O)[C@H](CO)NC(C)=O)C(C)C)C(=O)N[C@@H](CC(=O)O)C(=O)N[C@@H](CCCNC(=N)N)C(N)=O [CaliproBNP5, Ac-SPKMVQGSG-Ahx-FGRKMDR-CONH2] (Ac-SPKMVQGSG[Ahx]FGRKMDR-NH2)
Liquid stability at room temperature in buffer, ratio “signal at J0 + X/signal at J0” ([1]; J0 + 7, 0.0156 ng/mL): 1.1 | Liquid stability at room temperature in buffer, ratio “signal at J0 + X/signal at J0” ([1]; J0 + 7, 0.031 ng/mL): 1.06 | Liquid stability at room temperature in buffer, ratio “signal at J0 + X/signal at J0” ([1]; J0 + 7, 0.0625 ng/mL): 1.02 | Liquid stability at room temperature in buffer, ratio “signal at J0 + X/signal at J0” ([1]; J0 + 14, 0.0156 ng/mL): 1.01 | Liquid stability at room temperature in buffer, ratio “signal at J0 + X/signal at J0” ([1]; J0 + 14, 0.031 ng/mL): 1.01 | Liquid stability at room temperature in buffer, ratio “signal at J0 + X/signal at J0” ([1]; J0 + 14, 0.0625 ng/mL): 1.02 | Liquid stability at room temperature in buffer, ratio “signal at J0 + X/signal at J0” ([1]; J0 + 21, 0.0156 ng/mL): 1.10 | Liquid stability at room temperature in buffer, ratio “signal at J0 + X/signal at J0” ([1]; J0 + 21, 0.031 ng/mL): 1.06 | Liquid stability at room temperature in buffer, ratio “signal at J0 + X/signal at J0” ([1]; J0 + 21, 0.0625 ng/mL): 1.1 | stability compared with recombinant proBNP(1-108) and BNP(1-32) [1, 5]: higher stability | signal in the BNP(1-32) and the proBNP(1-108) assay (20G7 antibody [2]): signal increasing with the compound concentration

Ac-YTLRAPRSPKMV-Ahx-FGRKMDR-Ahx-SGLGC*KVLRRH-COOH (Ac-YTLRAPRSPKMV[Ahx]FGRKMDR[Ahx]SGLGC(Acm)KVLRRH-OH; SMILES CSCC[C@H](NC(=O)[C@H](CCCCN)NC(=O)[C@H](CCCNC(=N)N)NC(=O)CNC(=O)[C@H](Cc1ccccc1)NC(=O)CCCCCNC(=O)[C@@H](NC(=O)[C@H](CCSC)NC(=O)[C@H](CCCCN)NC(=O)[C@@H]1CCCN1C(=O)[C@H](CO)NC(=O)[C@H](CCCNC(=N)N)NC(=O)[C@@H]1CCCN1C(=O)[C@H](C)NC(=O)[C@H](CCCNC(=N)N)NC(=O)[C@H](CC(C)C)NC(=O)[C@@H](NC(=O)[C@H](Cc1ccc(O)cc1)NC(C)=O)[C@@H](C)O)C(C)C)C(=O)N[C@@H](CC(=O)O)C(=O)N[C@@H](CCCNC(=N)N)C(=O)NCCCCCC(=O)N[C@@H](CO)C(=O)NCC(=O)N[C@@H](CC(C)C)C(=O)NCC(=O)N[C@@H](CSCNC(C)=O)C(=O)N[C@@H](CCCCN)C(=O)N[C@H](C(=O)N[C@@H](CC(C)C)C(=O)N[C@@H](CCCNC(=N)N)C(=O)N[C@@H](CCCNC(=N)N)C(=O)N[C@@H](Cc1c[nH]cn1)C(=O)O)C(C)C) [CaliproBNP6, triepitopic calibrator]
signal in the BNP(1-32) and the proBNP(1-108) assay (20G7 antibody [2]): signal increasing with the compound concentration

CSCC[C@H](NC(=O)[C@H](CCCCN)NC(=O)[C@H](CCCNC(=N)N)NC(=O)CNC(=O)[C@H](Cc1ccccc1)NC(=O)CCCCCNC(=O)CNC(=O)[C@H](CCC(N)=O)NC(=O)[C@@H](NC(=O)[C@H](CCSC)NC(=O)[C@H](CCCCN)NC(=O)[C@@H]1CCCN1C(=O)[C@H](CO)NC(=O)[C@H](CCCNC(=N)N)NC(=O)[C@@H]1CCCN1C(=O)[C@H](C)NC(=O)[C@H](CCCNC(=N)N)NC(=O)[C@H](CC(C)C)NC(=O)[C@@H](NC(=O)[C@H](Cc1ccc(O)cc1)NC(C)=O)[C@@H](C)O)C(C)C)C(=O)N[C@@H](CC(=O)O)C(=O)N[C@@H](CCCNC(=N)N)C(N)=O [CaliproBNP3, Ac-YTLRAPRSPKMVQG-Ahx-FGRKMDR-CONH2] (Ac-YTLRAPRSPKMVQG[Ahx]FGRKMDR-NH2)
Liquid stability at room temperature in buffer, ratio “signal at J0 + X/signal at J0” ([3]; J0 + 7, 0.3 μg/mL): 0.91 | Liquid stability at room temperature in buffer, ratio “signal at J0 + X/signal at J0” ([3]; J0 + 7, 1 μg/mL): 0.92 | Liquid stability at room temperature in buffer, ratio “signal at J0 + X/signal at J0” ([3]; J0 + 14, 0.3 μg/mL): 0.98 | Liquid stability at room temperature in buffer, ratio “signal at J0 + X/signal at J0” ([3]; J0 + 14, 1 μg/mL): 1.02 | Liquid stability at room temperature in buffer, ratio “signal at J0 + X/signal at J0” ([3]; J0 + 21, 0.3 μg/mL): 1.15 | Liquid stability at room temperature in buffer, ratio “signal at J0 + X/signal at J0” ([3]; J0 + 21, 1 μg/mL): 1.06 | stability compared with recombinant proBNP(1-108) [3, 5]: higher stability | signal in the BioPlex 2200 proBNP assay (20G7 antibody [4]): increasing signal with the compound concentration

CC[C@H](C)[C@H](NC(=O)[C@H](CCCNC(=N)N)NC(=O)[C@H](CC(=O)O)NC(=O)[C@H](CCSC)NC(=O)[C@H](CCCCN)NC(=O)[C@H](CCCNC(=N)N)NC(=O)CNC(=O)[C@H](Cc1ccccc1)NC(=O)[C@H](CO)NC(=O)CCCCCNC(=O)[C@@H](NC(=O)[C@H](CCSC)NC(=O)[C@H](CCCCN)NC(=O)[C@@H]1CCCN1C(=O)[C@H](CO)NC(=O)[C@H](CCCNC(=N)N)NC(=O)[C@@H]1CCCN1C(=O)[C@H](C)NC(=O)[C@H](CCCNC(=N)N)NC(=O)[C@H](CC(C)C)NC(=O)[C@@H](NC(=O)[C@H](Cc1ccc(O)cc1)NC(C)=O)[C@@H](C)O)C(C)C)C(=O)N[C@@H](CO)C(=O)N[C@@H](CO)C(N)=O [CaliproBNP1, Ac-YTLRAPRSPKMV-Ahx-SFGRKMDRISS-CONH2] (Ac-YTLRAPRSPKMV[Ahx]SFGRKMDRISS-NH2)
signal in the BioPlex 2200 proBNP assay (20G7 antibody [4]): increasing signal with the compound concentration

Ac-TGCFGRKMDRISTSTAIGCKVLCys-CONH2 (Ac-TGCFGRKMDRISTSTAIGCKVLC-NH2; disulfide 3-19; also: KLH-coupled) [SEQ ID NO: 4, immunogen peptide, coupled to KLH]
immune response / antiserum reactivity towards BNP(1-32) (BNP(1-32)): very reactive; also recorded: much greater
